Measured values as given in US9132140B2, “Boronic acid derivatives and therapeutic uses thereof” (Rempex Pharmaceuticals, Inc., priority 2013, dated 2015).

Key:
ECLM1016 (NDM, KPC) = assay type: cell-based, Enterobacter cloacae
Excerpt: (§1) Several strains simultaneously expressing both class A and class B carbapenemases, which were constructed using conjugation, were also included in the panel.

ECL1036 (KPC) = assay type: cell-based, Enterobacter cloacae
Excerpt: as §1

ECLM1017 (VIM, KPC) = assay type: cell-based, Enterobacter cloacae
Excerpt: as §1

ECLM1014 (NDM, KPC) = assay type: cell-based, Enterobacter cloacae
Excerpt: as §1

ECLM1013 (NDM, KPC) = assay type: cell-based, Enterobacter cloacae
Excerpt: as §1

ECL1082 (VIM-1) = assay type: cell-based, Enterobacter cloacae
Excerpt: as §1

[1] = system: ECL1057 (NDM-1, TEM-1, CTX-M-15); assay type: cell-based, Enterobacter cloacae
Excerpt: as §1

ECL1026 (KPC) = assay type: cell-based, Enterobacter cloacae
Excerpt: as §1

ECLM1019 (VIM, KPC) = assay type: cell-based, Enterobacter cloacae
Excerpt: as §1

ECLM1018 (VIM, KPC) = assay type: cell-based, Enterobacter cloacae
Excerpt: as §1

ECL1055 (KPC) = assay type: cell-based, Enterobacter cloacae
Excerpt: as §1

ECL1045 (VIM-1) = assay type: cell-based, Enterobacter cloacae
Excerpt: as §1

[2] = system: strains of Enterobacteriaceae producing various carbapenemases; assay: Meropenem/imipenem potentiation MIC, whole panel; assay type: cell-based; conditions: strains expressing various carbapenemases, incl. class A and class B simultaneously; compound fixed 4 vg/ml
Excerpt: Several strains simultaneously expressing both class A and class B carbapenemases, which were constructed using conjugation, were also included in the panel. […]

EA1019 (SHV-5, VIM-1) = assay type: cell-based, Enterobacter aerogenes
Excerpt: as §1

CTX-M-14 = CTX-M-14 (Escherichia coli, UniProt Q9L5C7); assay: Inhibition of purified beta-lactamase, nitrocefin cleavage; assay type: biochemical
Protocol: (§2) Purified enzymes were mixed with various concentrations of inhibitors in reaction buffer and incubated for 10 min at room temperature. Nitrocefin was added and substrate cleavage profiles were recorded at 490 nm every 10 sec for 10 min.

OXA-48 = OXA-48 (Klebsiella pneumoniae, UniProt Q6XEC0); assay: as above; assay type: biochemical; conditions: read-out: Ki (OXA-48, NCF)
Protocol: as §2

SHV-12 = SHV-12 (Klebsiella pneumoniae, UniProt P0AD64, E235K/G234S/L31Q); assay: as above; assay type: biochemical; conditions: read-out: Ki (SHV-12, NCF)
Protocol: as §2

Chain of OXA-48 (Q6XEC0 23-265, looked up): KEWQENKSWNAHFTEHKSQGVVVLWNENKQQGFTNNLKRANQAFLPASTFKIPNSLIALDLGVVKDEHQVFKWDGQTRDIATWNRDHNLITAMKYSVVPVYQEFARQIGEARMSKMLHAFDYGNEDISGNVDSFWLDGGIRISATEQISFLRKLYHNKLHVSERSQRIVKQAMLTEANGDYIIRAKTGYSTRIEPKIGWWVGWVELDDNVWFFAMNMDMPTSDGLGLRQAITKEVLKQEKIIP
Chain of CTX-M-14 (Q9L5C7 entry or part of it): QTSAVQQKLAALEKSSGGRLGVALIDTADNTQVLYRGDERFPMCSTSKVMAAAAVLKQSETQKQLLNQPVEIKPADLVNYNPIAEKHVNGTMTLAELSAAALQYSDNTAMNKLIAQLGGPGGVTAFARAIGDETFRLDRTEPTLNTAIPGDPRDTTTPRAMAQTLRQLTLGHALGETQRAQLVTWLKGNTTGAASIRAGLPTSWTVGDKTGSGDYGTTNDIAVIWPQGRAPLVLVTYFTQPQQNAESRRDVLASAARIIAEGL
Chain of SHV-12 (P0AD64 22-286 L31Q/G234S/E235K): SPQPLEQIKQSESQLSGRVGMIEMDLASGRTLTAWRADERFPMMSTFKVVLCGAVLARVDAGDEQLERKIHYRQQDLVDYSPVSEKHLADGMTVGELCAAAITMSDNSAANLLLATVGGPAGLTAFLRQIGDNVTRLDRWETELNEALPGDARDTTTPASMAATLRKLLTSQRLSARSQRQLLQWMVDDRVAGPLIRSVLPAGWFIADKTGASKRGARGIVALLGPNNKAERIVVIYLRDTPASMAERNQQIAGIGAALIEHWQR

## Nn1cnnc1S[C@H]1Cc2cccc(C(=O)O)c2OB1O [Compound 14, (R)-3-(4-amino-4H-1,2,4-triazol-3-ylthio)-2-hydroxy-3,4-dihydro-2H-benzo[e][1,2]oxaborinine-8-carboxylic acid]
ECLM1016 (NDM, KPC)
  Imipenem + 14 MIC: X (key: X: MIC of less than 1 μg/mL; Y: MIC of 1 μg/mL to 10 μg/mL; Z: MIC of greater than 10 μg/mL)
  Meropenem + 14 MIC: X (key: X: MIC of less than 1 μg/mL; Y: MIC of 1 μg/mL to 10 μg/mL; Z: MIC of greater than 10 μg/mL)
ECL1036 (KPC)
  Imipenem + 14 MIC: X (key: X: MIC of less than 1 μg/mL; Y: MIC of 1 μg/mL to 10 μg/mL; Z: MIC of greater than 10 μg/mL)
  Meropenem + 14 MIC: X (key: X: MIC of less than 1 μg/mL; Y: MIC of 1 μg/mL to 10 μg/mL; Z: MIC of greater than 10 μg/mL)
ECLM1017 (VIM, KPC)
  Imipenem + 14 MIC: X (key: X: MIC of less than 1 μg/mL; Y: MIC of 1 μg/mL to 10 μg/mL; Z: MIC of greater than 10 μg/mL)
  Meropenem + 14 MIC: X (key: X: MIC of less than 1 μg/mL; Y: MIC of 1 μg/mL to 10 μg/mL; Z: MIC of greater than 10 μg/mL)
ECLM1014 (NDM, KPC)
  Imipenem + 14 MIC: X (key: X: MIC of less than 1 μg/mL; Y: MIC of 1 μg/mL to 10 μg/mL; Z: MIC of greater than 10 μg/mL)
  Meropenem + 14 MIC: X (key: X: MIC of less than 1 μg/mL; Y: MIC of 1 μg/mL to 10 μg/mL; Z: MIC of greater than 10 μg/mL)
ECLM1013 (NDM, KPC)
  Imipenem + 14 MIC: X (key: X: MIC of less than 1 μg/mL; Y: MIC of 1 μg/mL to 10 μg/mL; Z: MIC of greater than 10 μg/mL)
  Meropenem + 14 MIC: X (key: X: MIC of less than 1 μg/mL; Y: MIC of 1 μg/mL to 10 μg/mL; Z: MIC of greater than 10 μg/mL)
ECL1082 (VIM-1)
  Imipenem + 14 MIC: X (key: X: MIC of less than 1 μg/mL; Y: MIC of 1 μg/mL to 10 μg/mL; Z: MIC of greater than 10 μg/mL)
  Meropenem + 14 MIC: X (key: X: MIC of less than 1 μg/mL; Y: MIC of 1 μg/mL to 10 μg/mL; Z: MIC of greater than 10 μg/mL)
[1]
  Imipenem + 14 MIC: Y (key: X: MIC of less than 1 μg/mL; Y: MIC of 1 μg/mL to 10 μg/mL; Z: MIC of greater than 10 μg/mL)
  Meropenem + 14 MIC: Z (key: X: MIC of less than 1 μg/mL; Y: MIC of 1 μg/mL to 10 μg/mL; Z: MIC of greater than 10 μg/mL)
ECL1026 (KPC)
  Imipenem + 14 MIC: X (key: X: MIC of less than 1 μg/mL; Y: MIC of 1 μg/mL to 10 μg/mL; Z: MIC of greater than 10 μg/mL)
  Meropenem + 14 MIC: X (key: X: MIC of less than 1 μg/mL; Y: MIC of 1 μg/mL to 10 μg/mL; Z: MIC of greater than 10 μg/mL)
ECLM1019 (VIM, KPC)
  Imipenem + 14 MIC: X (key: X: MIC of less than 1 μg/mL; Y: MIC of 1 μg/mL to 10 μg/mL; Z: MIC of greater than 10 μg/mL)
  Meropenem + 14 MIC: X (key: X: MIC of less than 1 μg/mL; Y: MIC of 1 μg/mL to 10 μg/mL; Z: MIC of greater than 10 μg/mL)
ECLM1018 (VIM, KPC)
  Imipenem + 14 MIC: Y (key: X: MIC of less than 1 μg/mL; Y: MIC of 1 μg/mL to 10 μg/mL; Z: MIC of greater than 10 μg/mL)
  Meropenem + 14 MIC: X (key: X: MIC of less than 1 μg/mL; Y: MIC of 1 μg/mL to 10 μg/mL; Z: MIC of greater than 10 μg/mL)
ECL1055 (KPC)
  Imipenem + 14 MIC: X (key: X: MIC of less than 1 μg/mL; Y: MIC of 1 μg/mL to 10 μg/mL; Z: MIC of greater than 10 μg/mL)
  Meropenem + 14 MIC: X (key: X: MIC of less than 1 μg/mL; Y: MIC of 1 μg/mL to 10 μg/mL; Z: MIC of greater than 10 μg/mL)
ECL1045 (VIM-1)
  Imipenem + 14 MIC: X (key: X: MIC of less than 1 μg/mL; Y: MIC of 1 μg/mL to 10 μg/mL; Z: MIC of greater than 10 μg/mL)
  Meropenem + 14 MIC: X (key: X: MIC of less than 1 μg/mL; Y: MIC of 1 μg/mL to 10 μg/mL; Z: MIC of greater than 10 μg/mL)
[2]
  carbapenem MIC in the presence of compound: significantly reduced
EA1019 (SHV-5, VIM-1)
  Imipenem + 14 MIC: Y (key: X: MIC of less than 1 μg/mL; Y: MIC of 1 μg/mL to 10 μg/mL; Z: MIC of greater than 10 μg/mL)
  Meropenem + 14 MIC: X (key: X: MIC of less than 1 μg/mL; Y: MIC of 1 μg/mL to 10 μg/mL; Z: MIC of greater than 10 μg/mL)
CTX-M-14
  Ki: < 100 nM
OXA-48
  Ki: < 100 nM
SHV-12
  Ki: < 100 nM
